“And” between values parts separate entries of the source, which are not always exact repeats. Equal entries are not always repeated. Toxic doses and inconclusive results are not listed.
System: L1210 leukemia ip in BDF1 mice, survival T/C
Assay: NCI In Vivo Anticancer Drug Screen. Data for tumor model L1210 Leukemia (intraperitoneal) in B6D2F1 (BDF1) mice
Conditions: endpoint: mean survival time, higher = longer survival
Outline: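 Tumor cells were implanted, animals were treated, and survival was followed. The result divides the treated measurement by the vehicle-control measurement.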

[1] = dose: 100.0 mg/kg/injection, schedule: Q04DX002 (ip), vehicle: Klucel (hydroxypropylcellulose) (HPC)
[2] = dose: 200.0 mg/kg/injection, schedule: Q04DX002 (ip), vehicle: Klucel (hydroxypropylcellulose) (HPC)
[3] = dose: 400.0 mg/kg/injection, schedule: Q04DX002 (ip), vehicle: Klucel (hydroxypropylcellulose) (HPC)
[4] = dose: 100.0 mg/kg/injection, schedule: Q01DX001 (ip), vehicle: Klucel (hydroxypropylcellulose) (HPC)
[5] = dose: 200.0 mg/kg/injection, schedule: Q01DX001 (ip), vehicle: Klucel (hydroxypropylcellulose) (HPC)
[6] = dose: 100.0 mg/kg/injection, schedule: Q01DX009 (ip), vehicle: Klucel (hydroxypropylcellulose) (HPC)
[7] = dose: 100.0 mg/kg/injection, schedule: Q04DX003 (ip), vehicle: Klucel (hydroxypropylcellulose) (HPC)
[8] = dose: 200.0 mg/kg/injection, schedule: Q01DX009 (ip), vehicle: Klucel (hydroxypropylcellulose) (HPC)
[9] = dose: 200.0 mg/kg/injection, schedule: Q04DX003 (ip), vehicle: Klucel (hydroxypropylcellulose) (HPC)
[10] = dose: 400.0 mg/kg/injection, schedule: Q01DX009 (ip), vehicle: Klucel (hydroxypropylcellulose) (HPC)
[11] = dose: 400.0 mg/kg/injection, schedule: Q04DX003 (ip), vehicle: Klucel (hydroxypropylcellulose) (HPC)
[12] = dose: 100.0 mg/kg/injection, schedule: Q01DX009 (ip), vehicle: saline with Tween-80
[13] = dose: 100.0 mg/kg/injection, schedule: Q04DX003 (ip), vehicle: saline with Tween-80
[14] = dose: 200.0 mg/kg/injection, schedule: Q01DX009 (ip), vehicle: saline with Tween-80
[15] = dose: 200.0 mg/kg/injection, schedule: Q04DX003 (ip), vehicle: saline with Tween-80
[16] = dose: 400.0 mg/kg/injection, schedule: Q04DX003 (ip), vehicle: saline with Tween-80
[17] = dose: 50.0 mg/kg/injection, schedule: Q01DX009 (ip), vehicle: saline with Tween-80
[18] = dose: 100.0 mg/kg/injection, schedule: Q01DX001 (ip), vehicle: saline

`O=C(Nc1cccc(Cl)c1)Nc1cccc(Br)c1` was tested, and the T/C [1] was 96 % of control, the T/C [2] was 88 % of control and the T/C [3] was 118 % of control.

`NC(=O)c1[nH]cnc1N1CC[N+](Cc2ccccc2)=N1` was tested, and the T/C [4] was 102 % of control and the T/C [5] was 96 % of control.

With `O=C(O)COc1ccccc1F` the T/C [1] was 113 % of control, the T/C [2] was 98 % of control and the T/C [3] was 98 % of control.

With `COC1CCC(/C=C(\C#N)C2CCC([N+](=O)[O-])CC2)CC1` (stereo not given) the T/C (dose: 100.0 mg/kg/injection, schedule: Q04DX002 (ip), vehicle: saline with Tween-80) was 106 % of control, the T/C (dose: 200.0 mg/kg/injection, schedule: Q04DX002 (ip), vehicle: saline with Tween-80) was 102 % of control and the T/C (dose: 400.0 mg/kg/injection, schedule: Q04DX002 (ip), vehicle: saline with Tween-80) was 98 % of control.

For `Cc1ccc(NC(=O)c2ccc(Cl)cc2)cc1`, the T/C [6] was 95 % of control, the T/C [7] was 97 % of control and the T/C [8] was 99 % of control. For the same compound, the T/C [9] was 103 % of control, the T/C [10] was 90 % of control and the T/C [11] was 103 % of control.

In the case of `c1ccc2cc(-c3nc4cccc5c4n3CCC5)ccc2c1`, the T/C [12] is reported as 97 % of control, the T/C [13] is reported as 92 % of control and the T/C [14] is reported as 95 % of control. The T/C [15] was 89 % of control, the T/C (dose: 400.0 mg/kg/injection, schedule: Q01DX009 (ip), vehicle: saline with Tween-80) was 98 % of control and the T/C [16] was 94 % of control.

`O=C(O)C(O)c1cccc2ccccc12` (stereo not given) was tested, and the T/C [12] was 100 % of control and the T/C [14] was 100 % of control.

`N=C(CC(=O)Nc1ccccn1)c1ccccc1` was tested, and the T/C (dose: 100.0 mg/kg/injection, schedule: Q01DX001 (ip), vehicle: other) was 100 % of control, the T/C (dose: 200.0 mg/kg/injection, schedule: Q01DX001 (ip), vehicle: other) was 107 % of control and the T/C (dose: 400.0 mg/kg/injection, schedule: Q01DX001 (ip), vehicle: other) was 89 % of control.

In the case of `COc1ccc(Cl)cc1NC(=O)Oc1ccc(F)cc1`, the T/C [6] is reported as 87 % of control, the T/C [8] is reported as 97 % of control and the T/C [10] is reported as 87 % of control.

With `CS(=O)(=O)c1nsc(S(C)(=O)=O)c1C#N` the T/C (dose: 100.0 mg/kg/injection, schedule: Q04DX003 (ip), vehicle: carboxymethylcellulose (CMC)) was 95 % of control, the T/C (dose: 200.0 mg/kg/injection, schedule: Q04DX003 (ip), vehicle: carboxymethylcellulose (CMC)) was 97 % of control and the T/C (dose: 400.0 mg/kg/injection, schedule: Q04DX003 (ip), vehicle: carboxymethylcellulose (CMC)) was 95 % of control.

In the case of `C/C(=N\N=C(/C)c1ccc(Cl)cc1)c1ccc(Cl)cc1`, the T/C [4] is reported as 87 % of control, the T/C [6] is reported as 89 % of control and 95 % of control and the T/C [7] is reported as 89 % of control and 96 % of control. The T/C [5] was 87 % of control, the T/C [8] was 86 % of control and 95 % of control and the T/C [9] was 89 % of control and 102 % of control. For the same compound, the T/C (dose: 400.0 mg/kg/injection, schedule: Q01DX001 (ip), vehicle: Klucel (hydroxypropylcellulose) (HPC)) was 97 % of control, the T/C [10] was 94 % of control and the T/C [11] was 98 % of control and 93 % of control.

With `CCN=C(N)c1ccc(N=C(N)c2ccc(C(N)=Nc3ccc(C(N)=NCC)cc3)cc2)cc1` the T/C (dose: 7.5 mg/kg/injection, schedule: Q01DX Z (oral), vehicle: saline) was 98 % of control, the T/C (dose: 15.0 mg/kg/injection, schedule: Q01DX Z (ip), vehicle: saline) was 258 % of control and the T/C (dose: 15.0 mg/kg/injection, schedule: Q01DX Z (oral), vehicle: saline) was 100 % of control. For the same compound, the T/C (dose: 30.0 mg/kg/injection, schedule: Q01DX Z (oral), vehicle: saline) was 102 % of control, the T/C (dose: 60.0 mg/kg/injection, schedule: Q01DX Z (oral), vehicle: saline) was 102 % of control and the T/C (dose: 125.0 mg/kg/injection, schedule: Q## X010 (oral), vehicle: saline) was 103 % of control. The T/C (dose: 150.0 mg/kg/injection, schedule: Q01DX Z (oral), vehicle: saline) was 89 % of control and the T/C (dose: 250.0 mg/kg/injection, schedule: Q## X010 (oral), vehicle: saline) was 195 % of control.

With `CCOC(=O)NNOC(=O)CC` the T/C (dose: 100.0 mg/kg/injection, schedule: Q01DX001 (ip), vehicle: saline with Tween-80) was 92 % of control and the T/C (dose: 200.0 mg/kg/injection, schedule: Q01DX001 (ip), vehicle: saline with Tween-80) was 95 % of control.

In the case of `CCC1=CCN2CCC34c5cc(C6(C(=O)OC)CC7CC(CC)CN(CCc8c6[nH]c6ccccc86)C7)c(OC)cc5N(C)C3C(O)(C(=O)OC)C(OC(C)=O)C1C24` (stereo not given), the T/C (dose: 0.8 mg/kg/injection, schedule: Q01DX001 (ip), vehicle: saline) is reported as 100 % of control, the T/C (dose: 1.6 mg/kg/injection, schedule: Q01DX001 (ip), vehicle: saline) is reported as 100 % of control and the T/C (dose: 3.2 mg/kg/injection, schedule: Q01DX001 (ip), vehicle: saline) is reported as 101 % of control. For the same compound, the T/C (dose: 6.4 mg/kg/injection, schedule: Q01DX001 (ip), vehicle: saline) was 97 % of control.

With `COc1ccc(NC(=O)Nc2cc(Cl)ccc2OC)cc1` the T/C (dose: 12.5 mg/kg/injection, schedule: Q01DX009 (ip), vehicle: Klucel (hydroxypropylcellulose) (HPC)) was 90 % of control, the T/C (dose: 25.0 mg/kg/injection, schedule: Q01DX009 (ip), vehicle: Klucel (hydroxypropylcellulose) (HPC)) was 93 % of control and the T/C (dose: 50.0 mg/kg/injection, schedule: Q01DX009 (ip), vehicle: Klucel (hydroxypropylcellulose) (HPC)) was 93 % of control. For the same compound, the T/C [7] was 99 % of control, the T/C [9] was 92 % of control and the T/C [11] was 90 % of control.

`O=C1C=C(NC(Cc2cnc[nH]2)C(=O)O)c2ccccc2C1=O` (stereo not given) was tested, and the T/C [17] was 97 % of control, the T/C [12] was 100 % of control and the T/C [14] was 93 % of control.

In the case of `O=Cc1ccc[nH]1`, the T/C (dose: 100.0 mg/kg/injection, schedule: Q04DX003 (ip), vehicle: other) is reported as 93 % of control, the T/C (dose: 200.0 mg/kg/injection, schedule: Q04DX003 (ip), vehicle: other) is reported as 96 % of control and the T/C (dose: 400.0 mg/kg/injection, schedule: Q04DX003 (ip), vehicle: other) is reported as 110 % of control.

With `O=C(O)c1ccc(NC(=O)c2ccc(C(=O)Nc3ccc(C(=O)O)cc3)cc2)cc1` the T/C (dose: 15.0 mg/kg/injection, schedule: Q01DX Z (ip), vehicle: methylcellulose (MC)) was 101 % of control, the T/C (dose: 60.0 mg/kg/injection, schedule: Q01DX Z (ip), vehicle: methylcellulose (MC)) was 98 % of control and the T/C (dose: 120.0 mg/kg/injection, schedule: Q01DX Z (ip), vehicle: methylcellulose (MC)) was 95 % of control.

`CN(C)c1ccc(C=Nc2ccc(S(N)(=O)=O)cc2)cc1` was tested, and the T/C [6] was 100 % of control, the T/C [8] was 93 % of control and the T/C [10] was 98 % of control.

For `O=[N+]([O-])C(Cl)(CN1CCOCC1)CN1CCOCC1`, the T/C (dose: 11.1 mg/kg/injection, schedule: Q01DX Z (ip), vehicle: saline) was 113 % of control, the T/C (dose: 16.6 mg/kg/injection, schedule: Q01DX Z (ip), vehicle: saline) was 91 % of control and the T/C (dose: 25.0 mg/kg/injection, schedule: Q01DX Z (ip), vehicle: saline) was 95 % of control.

In the case of `CC(C)CC[n+]1ccc(C(N)=O)cc1`, the T/C [18] is reported as 97 % of control, the T/C (dose: 100.0 mg/kg/injection, schedule: Q04DX003 (ip), vehicle: saline) is reported as 98 % of control and the T/C (dose: 200.0 mg/kg/injection, schedule: Q01DX001 (ip), vehicle: saline) is reported as 100 % of control. The T/C (dose: 200.0 mg/kg/injection, schedule: Q04DX003 (ip), vehicle: saline) was 97 % of control, the T/C (dose: 400.0 mg/kg/injection, schedule: Q01DX001 (ip), vehicle: saline) was 95 % of control and the T/C (dose: 400.0 mg/kg/injection, schedule: Q04DX003 (ip), vehicle: saline) was 104 % of control.

For `OC12c3ccccc3C(O)(c3ccccc31)C1c3ccccc3C2c2ccccc21`, the T/C (dose: 50.0 mg/kg/injection, schedule: Q04DX002 (ip), vehicle: Klucel (hydroxypropylcellulose) (HPC)) was 101 % of control and the T/C [1] was 93 % of control.

In the case of `O=C(O)C1Cc2ccccc2CN1` (stereo not given), the T/C (dose: 25.0 mg/kg/injection, schedule: Q01DX009 (ip), vehicle: saline with Tween-80) is reported as 95 % of control, the T/C [17] is reported as 98 % of control and the T/C [12] is reported as 96 % of control and 106 % of control.

In the case of `CC(C)C1=CCC(OC(=O)c2ccc(NC(=S)Nc3ccccc3)cc2)CC1` (stereo not given), the T/C [13] is reported as 92 % of control, the T/C [15] is reported as 96 % of control and the T/C [16] is reported as 89 % of control.

With `C#CCCCCCC#CCCCCCC#CCCCCCC#C` the T/C (dose: 100.0 mg/kg/injection, schedule: Q04DX003 (ip), vehicle: acetone) was 94 % of control and the T/C (dose: 200.0 mg/kg/injection, schedule: Q04DX003 (ip), vehicle: acetone) was 95 % of control.

With `CCCOC(=O)CCl` the T/C [18] was 113 % of control.

From PubChem BioAssay AID248 (DTP/NCI, 2004)
